Measurements taken from ChEMBL document CHEMBL4342443, “Phloroglucinol Benzophenones and Xanthones from the Leaves of Garcinia cowa and Their Nitric Oxide Production and α-Glucosidase Inhibitory Activities” (J Nat Prod, 2020).
Calls of active or inactive are those of the source. The rule behind the calls is not given here.

Legend:
[1] = molecular target: T1, Alpha glucosidase (Homo sapiens, UniProt O43451+P10253+P14410+Q2M2H8); test: Inhibition of alpha-glucosidase (unknown origin) using p-nitrophenyl alpha-D-glucoside as substrate preincubated for 0.5 hrs followed substrate addition and measured after 1 hr by colorimetric method; assay type: protein assay
[2] = system: RAW264.7; test: Inhibition of NO production in LPS-stimulated mouse RAW264.7 cells incubated for 24 hrs by Griess reagent-based assay; assay type: functional, cell-based; details: RAW264.7, 24 h
[3] = system: RAW264.7; test: Inhibition of NO production in LPS-stimulated mouse RAW264.7 cells at > 100 uM incubated for 24 hrs by Griess reagent-based assay; assay type: functional, cell-based
[4] = molecular target: T1, Alpha glucosidase; test: Inhibition of alpha-glucosidase (unknown origin) at > 100 uM using p-nitrophenyl alpha-D-glucoside as substrate preincubated for 0.5 hrs followed substrate addition and measured after 1 hr by colorimetric method; assay type: protein assay

Row | SMILES | IC50 [1] | IC50 [2] | inhibition [3] | inhibition [4]
1 | COc1c(O)cc2oc3cc4c(c(O)c3c(=O)c2c1CC=C(C)C)C=CC(C)(C)O4 [MANGOSTANIN] | 11.4 µM | 18.6 µM | – | –
2 | CC1(C)CCc2c(cc3oc4c(O)c(O)ccc4c(=O)c3c2O)O1 | – | – | inactive | inactive
3 | COc1c(O)cc2oc3cc(O)c(CC=C(C)C)c(O)c3c(=O)c2c1C/C=C(\C)CCC=C(C)C [COWANIN] | 37.4 µM | – | inactive | –
4 | COc1c(O)cc2oc3cc(O)c(C/C=C(\C)CO)c(O)c3c(=O)c2c1C/C=C(\C)CCC=C(C)C | 28.7 µM | 13.4 µM | – | –
5 | CC(C)(O)CCC[C@@]1(C)[C@H](CCC(C)(C)O)C[C@@]23CCC(C)(C)OC2=C(C(=O)c2ccccc2)C(=O)[C@@H]1C3=O | – | – | inactive | inactive
6 | COc1c(O)cc2oc3cc(O)c(CCC(C)(C)O)c(O)c3c(=O)c2c1CC=C(C)C | – | 5.4 µM | – | inactive
7 | CC(C)=CCC/C(C)=C/CCC(C)(O)CCc1c(O)c(O)cc2oc3cc(O)cc(O)c3c(=O)c12 (racemic) | 25.4 µM | 7.7 µM | – | –
8 | CC(C)=CC[C@@H]1C[C@@]23CCC(C)(C)OC2=C(C(=O)c2ccccc2)C(=O)[C@H](C3=O)[C@@]1(C)CCCC(C)(C)O | – | 11 µM | – | inactive
9 | N=C(N)NN [PIMAGEDINE] | – | 19.9 µM | – | –
10 | COc1cc2oc3cc(O)c(OC)c(CC=C(C)C)c3c(=O)c2c(O)c1CC=C(C)C | 22.6 µM | – | inactive | –
11 | CC(C)=CCC/C(C)=C/Cc1c(O)cc2oc3c(O)cccc3c(=O)c2c1O | – | – | inactive | inactive
12 | CC(C)=CCC/C(C)=C/CC/C(C)=C/CCC(C)(O)CCc1c(O)c(O)cc2oc3cc(O)cc(O)c3c(=O)c12 (racemic) | 15.4 µM | 5.8 µM | – | –
13 | CC(C)=CCC/C(C)=C/CC/C(C)=C/Cc1c(O)c(O)cc2oc3cc(O)cc(O)c3c(=O)c12 | 76.2 µM | – | inactive | –
